According to ChEMBL document CHEMBL5303766, “Data for DCP probe FHT-2344” (2022):

What was measured:
[1] = biological target: 5-hydroxytryptamine receptor 2A (Homo sapiens) (UniProt P28223); settings: Compound concentration 10.0 uM
[2] = biological target: Casein kinase II subunit alpha (Homo sapiens) (UniProt P68400); experiment: CSNK2A1A SGC Tm panel (DSF); settings: for ΔTm: Compound concentration 10.0 uM
[3] = biological target: RAC-gamma serine/threonine-protein kinase (Homo sapiens) (UniProt Q9Y243); experiment: AKT3 SGC Tm panel (DSF); settings: for ΔTm: Compound concentration 10.0 uM
[4] = biological target: Serine/threonine-protein kinase OSR1 (Homo sapiens) (UniProt O95747); experiment: OXSR1 SGC Tm panel (DSF); settings: for ΔTm: Compound concentration 10.0 uM
Serine/threonine-protein kinase OSR1 (Homo sapiens), sequence (O95747 2-527 limits assumed): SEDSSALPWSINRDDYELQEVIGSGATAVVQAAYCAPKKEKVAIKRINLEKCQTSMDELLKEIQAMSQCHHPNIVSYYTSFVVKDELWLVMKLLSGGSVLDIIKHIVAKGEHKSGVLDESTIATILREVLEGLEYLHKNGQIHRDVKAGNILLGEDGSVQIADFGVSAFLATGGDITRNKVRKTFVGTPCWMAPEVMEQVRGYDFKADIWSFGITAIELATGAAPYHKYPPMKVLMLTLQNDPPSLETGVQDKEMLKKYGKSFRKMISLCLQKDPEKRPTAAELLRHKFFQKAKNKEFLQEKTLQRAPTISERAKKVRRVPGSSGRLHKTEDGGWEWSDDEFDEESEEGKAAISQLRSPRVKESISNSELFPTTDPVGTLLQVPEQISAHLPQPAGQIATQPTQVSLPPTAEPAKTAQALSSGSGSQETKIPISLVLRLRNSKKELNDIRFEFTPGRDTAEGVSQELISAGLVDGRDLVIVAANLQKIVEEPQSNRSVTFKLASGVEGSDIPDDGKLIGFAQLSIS

[5] = biological target: T1, Tyrosine-protein kinase Mer (Homo sapiens) (UniProt Q12866); experiment: MERTK SGC Tm panel (DSF); settings: for ΔTm: Compound concentration 10.0 uM
T1 sequence (whole entry): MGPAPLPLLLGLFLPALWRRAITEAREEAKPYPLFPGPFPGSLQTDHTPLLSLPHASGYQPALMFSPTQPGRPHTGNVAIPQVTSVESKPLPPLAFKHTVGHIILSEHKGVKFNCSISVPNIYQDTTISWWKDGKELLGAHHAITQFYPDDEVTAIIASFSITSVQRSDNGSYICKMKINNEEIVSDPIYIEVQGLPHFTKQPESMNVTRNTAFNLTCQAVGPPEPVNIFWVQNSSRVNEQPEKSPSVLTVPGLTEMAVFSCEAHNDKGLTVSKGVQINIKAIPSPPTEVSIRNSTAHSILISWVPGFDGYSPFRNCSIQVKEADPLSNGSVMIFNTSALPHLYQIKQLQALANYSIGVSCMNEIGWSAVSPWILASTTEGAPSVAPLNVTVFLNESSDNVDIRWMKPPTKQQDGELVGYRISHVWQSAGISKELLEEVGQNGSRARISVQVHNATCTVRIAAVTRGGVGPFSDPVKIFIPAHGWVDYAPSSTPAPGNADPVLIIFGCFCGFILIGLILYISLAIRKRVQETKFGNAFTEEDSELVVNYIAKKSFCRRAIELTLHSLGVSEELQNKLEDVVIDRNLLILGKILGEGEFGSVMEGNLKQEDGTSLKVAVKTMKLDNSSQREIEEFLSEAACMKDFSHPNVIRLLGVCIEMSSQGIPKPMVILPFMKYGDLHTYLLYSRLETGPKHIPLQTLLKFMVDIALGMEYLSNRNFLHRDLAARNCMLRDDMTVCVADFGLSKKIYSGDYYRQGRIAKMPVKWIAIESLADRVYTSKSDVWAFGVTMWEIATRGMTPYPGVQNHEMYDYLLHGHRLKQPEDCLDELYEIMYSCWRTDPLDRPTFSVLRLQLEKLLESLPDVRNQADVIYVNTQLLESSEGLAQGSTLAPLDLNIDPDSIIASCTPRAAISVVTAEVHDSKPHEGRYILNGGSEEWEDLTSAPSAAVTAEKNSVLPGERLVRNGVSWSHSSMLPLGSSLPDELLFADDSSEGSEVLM

[6] = biological target: Calcium/calmodulin-dependent protein kinase type 1D (Homo sapiens) (UniProt Q8IU85); experiment: CAMK1D SGC Tm panel (DSF); settings: for ΔTm: Compound concentration 10.0 uM
Calcium/calmodulin-dependent protein kinase type 1D (Homo sapiens), sequence (Q8IU85 whole entry, looked up, canonical isoform): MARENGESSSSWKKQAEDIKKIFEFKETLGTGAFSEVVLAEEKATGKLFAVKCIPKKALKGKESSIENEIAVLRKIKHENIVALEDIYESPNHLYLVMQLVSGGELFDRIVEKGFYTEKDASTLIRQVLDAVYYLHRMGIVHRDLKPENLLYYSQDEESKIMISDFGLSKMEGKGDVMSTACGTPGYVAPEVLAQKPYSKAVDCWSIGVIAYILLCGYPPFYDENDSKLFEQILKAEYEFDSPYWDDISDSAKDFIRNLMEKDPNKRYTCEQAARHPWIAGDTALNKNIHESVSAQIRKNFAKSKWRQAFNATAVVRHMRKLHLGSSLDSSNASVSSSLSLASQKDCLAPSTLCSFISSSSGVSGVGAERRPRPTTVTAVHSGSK

[7] = biological target: Casein kinase I isoform delta (Homo sapiens) (UniProt P48730); experiment: CSNK1D SGC Tm panel (DSF); settings: for ΔTm: Compound concentration 10.0 uM
Casein kinase I isoform delta (Homo sapiens), sequence (P48730 whole entry, looked up, canonical isoform): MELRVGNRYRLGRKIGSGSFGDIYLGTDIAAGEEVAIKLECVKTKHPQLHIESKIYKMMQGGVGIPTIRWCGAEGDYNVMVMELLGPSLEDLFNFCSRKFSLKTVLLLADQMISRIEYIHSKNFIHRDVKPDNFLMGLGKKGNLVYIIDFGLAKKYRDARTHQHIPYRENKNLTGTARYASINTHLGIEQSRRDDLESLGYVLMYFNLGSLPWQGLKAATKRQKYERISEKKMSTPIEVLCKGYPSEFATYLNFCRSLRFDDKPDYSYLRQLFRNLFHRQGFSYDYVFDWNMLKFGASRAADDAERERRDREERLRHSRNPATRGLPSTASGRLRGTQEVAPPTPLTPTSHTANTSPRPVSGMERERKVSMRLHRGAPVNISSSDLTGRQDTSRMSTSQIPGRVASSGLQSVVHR

[8] = biological target: AP2-associated protein kinase 1 (Homo sapiens) (UniProt Q2M2I8); experiment: AAK1 SGC Tm panel (DSF); settings: for ΔTm: Compound concentration 10.0 uM
AP2-associated protein kinase 1 (Homo sapiens), sequence (Q2M2I8 whole entry, looked up): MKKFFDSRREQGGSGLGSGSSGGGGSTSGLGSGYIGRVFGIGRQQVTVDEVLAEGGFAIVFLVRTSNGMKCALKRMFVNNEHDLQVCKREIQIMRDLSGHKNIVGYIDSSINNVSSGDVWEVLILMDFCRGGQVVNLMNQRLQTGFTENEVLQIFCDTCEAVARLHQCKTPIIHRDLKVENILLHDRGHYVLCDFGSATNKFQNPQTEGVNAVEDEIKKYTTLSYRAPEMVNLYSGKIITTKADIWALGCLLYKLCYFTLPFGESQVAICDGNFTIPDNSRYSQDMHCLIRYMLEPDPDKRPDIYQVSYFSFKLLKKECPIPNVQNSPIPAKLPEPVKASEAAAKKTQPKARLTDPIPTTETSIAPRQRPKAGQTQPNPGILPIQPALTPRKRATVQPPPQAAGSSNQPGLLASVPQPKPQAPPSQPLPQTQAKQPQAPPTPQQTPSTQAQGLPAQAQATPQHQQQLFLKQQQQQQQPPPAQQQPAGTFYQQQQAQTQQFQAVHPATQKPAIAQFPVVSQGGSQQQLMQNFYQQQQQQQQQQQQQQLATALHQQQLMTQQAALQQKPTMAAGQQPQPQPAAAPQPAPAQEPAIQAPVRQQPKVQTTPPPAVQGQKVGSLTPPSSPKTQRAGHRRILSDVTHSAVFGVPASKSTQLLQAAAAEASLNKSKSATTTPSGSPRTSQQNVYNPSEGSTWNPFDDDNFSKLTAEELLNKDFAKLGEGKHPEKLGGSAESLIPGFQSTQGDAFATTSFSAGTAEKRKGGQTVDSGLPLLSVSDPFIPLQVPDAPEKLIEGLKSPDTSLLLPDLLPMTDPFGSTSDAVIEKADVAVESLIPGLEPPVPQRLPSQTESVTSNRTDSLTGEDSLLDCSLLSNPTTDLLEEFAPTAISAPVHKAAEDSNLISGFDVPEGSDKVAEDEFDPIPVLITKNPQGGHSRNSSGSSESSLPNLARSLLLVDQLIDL

[9] = biological target: Muscarinic acetylcholine receptor M2 (Homo sapiens) (UniProt P08172); settings: Compound concentration 10.0 uM
[10] = biological target: SRSF protein kinase 1 (Homo sapiens) (UniProt Q96SB4); experiment: SRPK1 SGC Tm panel (DSF); settings: for ΔTm: Compound concentration 10.0 uM
SRSF protein kinase 1 (Homo sapiens), sequence (Q96SB4 whole entry): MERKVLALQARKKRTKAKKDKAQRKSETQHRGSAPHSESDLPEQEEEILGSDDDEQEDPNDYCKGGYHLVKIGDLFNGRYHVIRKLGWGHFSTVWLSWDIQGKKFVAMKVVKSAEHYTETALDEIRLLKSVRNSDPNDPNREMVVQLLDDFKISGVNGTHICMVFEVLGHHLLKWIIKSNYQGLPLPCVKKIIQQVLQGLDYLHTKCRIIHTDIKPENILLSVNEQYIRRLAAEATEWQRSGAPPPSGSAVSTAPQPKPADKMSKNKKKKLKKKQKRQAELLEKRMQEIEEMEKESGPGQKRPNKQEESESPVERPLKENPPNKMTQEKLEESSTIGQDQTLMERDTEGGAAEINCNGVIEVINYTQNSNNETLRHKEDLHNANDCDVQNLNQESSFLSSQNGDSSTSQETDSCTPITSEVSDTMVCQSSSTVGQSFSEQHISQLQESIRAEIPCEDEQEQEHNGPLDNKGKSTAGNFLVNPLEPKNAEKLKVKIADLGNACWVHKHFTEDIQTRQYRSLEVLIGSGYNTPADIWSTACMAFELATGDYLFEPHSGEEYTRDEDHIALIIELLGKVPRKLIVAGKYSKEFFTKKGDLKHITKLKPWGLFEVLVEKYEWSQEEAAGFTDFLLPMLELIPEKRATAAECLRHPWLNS

[11] = biological target: Serine/threonine-protein kinase Nek7 (Homo sapiens) (UniProt Q8TDX7); experiment: NEK7 SGC Tm panel (DSF); settings: for ΔTm: Compound concentration 10.0 uM
Serine/threonine-protein kinase Nek7 (Homo sapiens), sequence (Q8TDX7 whole entry, looked up): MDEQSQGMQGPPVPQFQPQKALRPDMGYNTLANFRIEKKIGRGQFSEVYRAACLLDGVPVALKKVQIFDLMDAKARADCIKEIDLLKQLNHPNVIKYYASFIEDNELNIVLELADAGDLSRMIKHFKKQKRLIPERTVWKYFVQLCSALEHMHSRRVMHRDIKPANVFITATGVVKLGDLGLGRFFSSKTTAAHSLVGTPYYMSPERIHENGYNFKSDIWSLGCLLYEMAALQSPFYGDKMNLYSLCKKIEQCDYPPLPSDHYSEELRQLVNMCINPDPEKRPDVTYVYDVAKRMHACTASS

[12] = biological target: Mitogen-activated protein kinase 8 (Homo sapiens) (UniProt P45983); experiment: MAPK8 SGC Tm panel (DSF); settings: for ΔTm: Compound concentration 10.0 uM
Mitogen-activated protein kinase 8 (Homo sapiens), sequence (P45983 whole entry): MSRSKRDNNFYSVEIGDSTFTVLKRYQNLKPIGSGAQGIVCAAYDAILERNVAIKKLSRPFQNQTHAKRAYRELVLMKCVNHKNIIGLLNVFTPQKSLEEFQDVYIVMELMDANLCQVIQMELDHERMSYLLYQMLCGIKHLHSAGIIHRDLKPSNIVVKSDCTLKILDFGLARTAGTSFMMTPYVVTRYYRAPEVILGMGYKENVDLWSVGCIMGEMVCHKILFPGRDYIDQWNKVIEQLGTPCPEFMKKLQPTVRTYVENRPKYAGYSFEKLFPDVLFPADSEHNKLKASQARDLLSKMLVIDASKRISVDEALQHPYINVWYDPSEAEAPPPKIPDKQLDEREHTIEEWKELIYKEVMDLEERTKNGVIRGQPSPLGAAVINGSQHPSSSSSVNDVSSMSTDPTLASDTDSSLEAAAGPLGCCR

[13] = biological target: G protein-coupled receptor kinase 5 (Homo sapiens) (UniProt P34947); experiment: GPRK5 SGC Tm panel (DSF); settings: for ΔTm: Compound concentration 10.0 uM
[14] = biological target: Serine/threonine-protein kinase PAK 1 (Homo sapiens) (UniProt Q13153); experiment: PAK1 SGC Tm panel (DSF); settings: for ΔTm: Compound concentration 10.0 uM
Serine/threonine-protein kinase PAK 1 (Homo sapiens), sequence (Q13153 whole entry): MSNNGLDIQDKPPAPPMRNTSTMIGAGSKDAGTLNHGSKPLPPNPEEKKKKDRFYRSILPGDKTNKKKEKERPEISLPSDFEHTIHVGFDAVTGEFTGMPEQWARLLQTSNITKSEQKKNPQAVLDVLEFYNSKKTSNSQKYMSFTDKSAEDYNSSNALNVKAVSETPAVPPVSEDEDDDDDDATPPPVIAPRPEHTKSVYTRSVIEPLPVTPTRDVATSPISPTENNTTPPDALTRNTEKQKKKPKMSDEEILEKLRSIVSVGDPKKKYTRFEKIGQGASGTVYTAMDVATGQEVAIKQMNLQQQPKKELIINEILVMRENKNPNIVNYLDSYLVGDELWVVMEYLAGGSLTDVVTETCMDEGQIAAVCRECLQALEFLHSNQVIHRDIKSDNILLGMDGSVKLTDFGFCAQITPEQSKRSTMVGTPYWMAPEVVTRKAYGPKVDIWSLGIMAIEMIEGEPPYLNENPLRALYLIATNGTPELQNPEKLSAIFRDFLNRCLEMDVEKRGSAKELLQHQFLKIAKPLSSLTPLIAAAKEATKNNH

[15] = biological target: Death-associated protein kinase 3 (Homo sapiens) (UniProt O43293); experiment: DAPK3 SGC Tm panel (DSF); settings: for ΔTm: Compound concentration 10.0 uM
Death-associated protein kinase 3 (Homo sapiens), sequence (O43293 whole entry, looked up): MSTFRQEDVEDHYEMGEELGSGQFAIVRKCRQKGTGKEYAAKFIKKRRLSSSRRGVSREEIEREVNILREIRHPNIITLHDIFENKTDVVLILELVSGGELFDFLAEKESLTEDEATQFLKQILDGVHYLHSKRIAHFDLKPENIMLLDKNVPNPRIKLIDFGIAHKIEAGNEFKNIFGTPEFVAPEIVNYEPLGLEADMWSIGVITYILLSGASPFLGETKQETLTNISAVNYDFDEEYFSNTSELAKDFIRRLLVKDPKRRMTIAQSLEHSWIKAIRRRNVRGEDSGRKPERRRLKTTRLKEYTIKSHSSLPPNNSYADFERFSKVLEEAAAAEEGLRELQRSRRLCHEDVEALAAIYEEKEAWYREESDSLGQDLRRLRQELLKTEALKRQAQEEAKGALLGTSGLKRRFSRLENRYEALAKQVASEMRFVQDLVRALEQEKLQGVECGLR

[16] = biological target: GABA-A receptor; anion channel (Rattus norvegicus) (UniProt O09028+P15431+P18506+P18508+P19969+P20236+P23574+P23576+P28471+P28473+P30191+P62813+P63079+P63138+Q91ZM7+Q9ES14); settings: Compound concentration 10.0 uM

inhibition [1] | delta Tm Staurosporine positive control [2] | ΔTm [2] | delta Tm Staurosporine positive control [3] | ΔTm [3] | delta Tm Staurosporine positive control [4] | ΔTm [4] | delta Tm Staurosporine positive control [5] | ΔTm [5] | delta Tm Staurosporine positive control [6] | ΔTm [6] | delta Tm Staurosporine positive control [7] | ΔTm [7] | delta Tm Staurosporine positive control [8] | ΔTm [8] | inhibition [9] | delta Tm Staurosporine positive control [10] | ΔTm [10] | delta Tm Staurosporine positive control [11] | ΔTm [11] | SMILES | further results
4.18% | 2.85 | -0.131 | 7.03 | 0.0196 | 5.06 | -0.0355 | 6.35 | 0.54 | 10.8 | 0.174 | 1.43 | 0.637 | 11.6 | -0.00871 | 6.19% | 7.14 | 0.728 | 1.29 | 0.0604 | COC[C@H](NC(=O)c1ccn(S(C)(=O)=O)c1)C(=O)Nc1nc(-c2cccc(-c3ccn(C)n3)c2)cs1 | delta Tm Staurosporine positive control [12]: 7.87; ΔTm [12]: 0.206; delta Tm Staurosporine positive control [13]: 6.82; ΔTm [13]: 0.544; delta Tm Staurosporine positive control [14]: 7.66; ΔTm [14]: -0.233; delta Tm Staurosporine positive control [15]: 16.2; ΔTm [15]: -1.53; inhibition [16]: 16%
-5.53% | 2.85 | 0.0573 | 7.03 | 0.193 | 5.06 | 1.31 | 6.35 | 0.284 | 10.8 | 0.455 | 1.43 | 0.845 | 11.6 | 0.0243 | 16.3% | 7.14 | 0.0203 | 1.29 | 0.0219 | C[C@H](NC(=O)c1cn(C2(C#N)CC2)cn1)C(=O)Nc1nc(-c2cccc(-c3ccn(C)n3)c2)cs1 | delta Tm Staurosporine positive control [12]: 7.87; ΔTm [12]: 0.458; delta Tm Staurosporine positive control [13]: 6.82; ΔTm [13]: 0.226; delta Tm Staurosporine positive control [14]: 7.66; ΔTm [14]: 0.443; delta Tm Staurosporine positive control [15]: 16.2; ΔTm [15]: -1.05; inhibition [16]: 31.5%
